Experimental data reported in patent US20260242372A1, “NOVEL IMIDAZOPYRIDINE AND PYRAZOLOPYRIDINE SULFONAMIDE DERIVATIVES” (Hoffmann-La Roche Inc., priority 2022, published 2026).

What follows are molecules tested against human GPR17 short isoform (Homo sapiens, UniProt Q13304) (assay: GPR17 cAMP assay (hGPR17 cAMP, TR-FRET, antagonist mode)). Details: CHO-K1 cells stably expressing human GPR17 short isoform; EC80 of agonist MDL29,951; forskolin 15 μM; 30 min at room temperature.
Assay type: cell-based

Chain of human GPR17 short isoform (Q13304 29-367): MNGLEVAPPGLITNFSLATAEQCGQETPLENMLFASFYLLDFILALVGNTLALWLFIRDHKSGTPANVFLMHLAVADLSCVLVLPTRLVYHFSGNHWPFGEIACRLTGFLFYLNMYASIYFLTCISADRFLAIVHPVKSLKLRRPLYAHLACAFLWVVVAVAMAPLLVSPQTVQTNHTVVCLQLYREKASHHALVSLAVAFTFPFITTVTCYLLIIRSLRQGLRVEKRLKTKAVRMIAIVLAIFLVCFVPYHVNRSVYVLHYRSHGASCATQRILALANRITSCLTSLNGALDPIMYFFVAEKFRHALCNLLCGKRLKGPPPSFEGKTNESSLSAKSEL

Row | Structure (SMILES) | IC50 [µM]
1 | COc1c(C)ccn2c(S(=O)(=O)Nc3cc(F)c(C#N)cc3F)cnc12 [Example 98, N-(4-cyano-2,5-difluoro-phenyl)-8-methoxy-7-methyl-imidazo[1,2-a]pyridine-3-sulfonamide] | 0.819
2 | COc1nc(NS(=O)(=O)c2cnn3cc(Br)ccc23)c(F)cc1OC(F)F [Example 99, 6-bromo-N-[5-(difluoromethoxy)-3-fluoro-6-methoxy-2-pyridyl]pyrazolo[1,5-a]pyridine-3-sulfonamide] | 0.008
3 | COc1nc(OCC(F)F)c(F)cc1NS(=O)(=O)c1cnc2cc(C3COC3)ccn12 [Example 100, N-[6-(2,2-difluoroethoxy)-5-fluoro-2-methoxy-3-pyridyl]-7-(oxetan-3-yl)imidazo[1,2-a]pyridine-3-sulfonamide] | 0.037
4 | COc1cc(CC#N)c(F)cc1NS(=O)(=O)c1cnc2cc(C3COC3)ccn12 [Example 101, N-[4-(cyanomethyl)-5-fluoro-2-methoxy-phenyl]-7-(oxetan-3-yl)imidazo[1,2-a]pyridine-3-sulfonamide] | 0.179
5 | COc1nc(NS(=O)(=O)c2cnc3cc(C4COC4)ccn23)c(F)cc1CC(F)F [Example 102, N-[5-(2,2-difluoroethyl)-3-fluoro-6-methoxy-2-pyridyl]-7-(oxetan-3-yl)imidazo[1,2-a]pyridine-3-sulfonamide] | 0.201
6 | COc1nc(OCC(F)F)c(F)cc1NS(=O)(=O)c1cnc2nc(C3COC3)ccn12 [Example 103, N-[6-(2,2-difluoroethoxy)-5-fluoro-2-methoxy-3-pyridyl]-7-(oxetan-3-yl)imidazo[1,2-a]pyrimidine-3-sulfonamide] | 0.492
7 | COc1nc(OCC(F)F)c(F)cc1NS(=O)(=O)c1cnn2cc(C3COC3)ccc12 [Example 104, N-[6-(2,2-difluoroethoxy)-5-fluoro-2-methoxy-3-pyridyl]-6-(oxetan-3-yl)pyrazolo[1,5-a]pyridine-3-sulfonamide] | 0.306
8 | COc1nc(OCC(F)F)c(F)cc1NS(=O)(=O)c1cnc2nc(Br)ccn12 [Example 105, 7-bromo-N-[6-(2,2-difluoroethoxy)-5-fluoro-2-methoxy-3-pyridyl]imidazo[1,2-a]pyrimidine-3-sulfonamide] | 0.027
9 | COc1nc(OCC(F)F)c(F)cc1NS(=O)(=O)c1cnc2cc(C(C)(C)O)ccn12 [Example 106, N-[6-(2,2-difluoroethoxy)-5-fluoro-2-methoxy-3-pyridyl]-7-(1-hydroxy-1-methyl-ethyl)imidazo[1,2-a]pyridine-3-sulfonamide] | 0.038
10 | COc1nc(OCC(F)F)c(F)cc1NS(=O)(=O)c1cnc2n1CC[C@@H](C)C2 [Example 108, (7R)—N-[6-(2,2-difluoroethoxy)-5-fluoro-2-methoxy-3-pyridyl]-7-methyl-5,6,7,8-tetrahydroimidazo[1,2-a]pyridine-3-sulfonamide] | 0.016
11 | COc1nc(OCC(F)F)c(F)cc1NS(=O)(=O)c1cnc2n1CC[C@H](C)C2 [Example 109, (7S)—N-[6-(2,2-difluoroethoxy)-5-fluoro-2-methoxy-3-pyridyl]-7-methyl-5,6,7,8-tetrahydroimidazo[1,2-a]pyridine-3-sulfonamide] | 0.035
